ChEMBL document CHEMBL3232801, “Oxidative stress in Alzheimer's disease: are we connecting the dots?” (J Med Chem, 2014)

Legend:
Acetylcholinesterase [1] = biological target: T1, Acetylcholinesterase (Homo sapiens, UniProt P22303); assay: Inhibition of AChE (unknown origin)
Acetylcholinesterase [2] = biological target: T1, Acetylcholinesterase; assay: Inhibition of AChE (unknown origin)-mediated amyloid beta aggregation at 100 uM
[3] = biological target: T2, Amyloid-beta precursor protein (Homo sapiens, UniProt P05067); assay: Inhibition of amyloid beta (unknown origin) aggregation
[4] = biological target: T2, Amyloid-beta precursor protein; assay: Inhibition of amyloid beta (unknown origin) aggregation at 10 uM
Acetylcholinesterase [5] = biological target: T1, Acetylcholinesterase; assay: Inhibition of AChE (unknown origin) assessed as inhibition of ROS production
[6] = biological target: T2, Amyloid-beta precursor protein; assay: Inhibition of amyloid beta (unknown origin) aggregation at 25 uM

T2 sequence (P05067 whole entry): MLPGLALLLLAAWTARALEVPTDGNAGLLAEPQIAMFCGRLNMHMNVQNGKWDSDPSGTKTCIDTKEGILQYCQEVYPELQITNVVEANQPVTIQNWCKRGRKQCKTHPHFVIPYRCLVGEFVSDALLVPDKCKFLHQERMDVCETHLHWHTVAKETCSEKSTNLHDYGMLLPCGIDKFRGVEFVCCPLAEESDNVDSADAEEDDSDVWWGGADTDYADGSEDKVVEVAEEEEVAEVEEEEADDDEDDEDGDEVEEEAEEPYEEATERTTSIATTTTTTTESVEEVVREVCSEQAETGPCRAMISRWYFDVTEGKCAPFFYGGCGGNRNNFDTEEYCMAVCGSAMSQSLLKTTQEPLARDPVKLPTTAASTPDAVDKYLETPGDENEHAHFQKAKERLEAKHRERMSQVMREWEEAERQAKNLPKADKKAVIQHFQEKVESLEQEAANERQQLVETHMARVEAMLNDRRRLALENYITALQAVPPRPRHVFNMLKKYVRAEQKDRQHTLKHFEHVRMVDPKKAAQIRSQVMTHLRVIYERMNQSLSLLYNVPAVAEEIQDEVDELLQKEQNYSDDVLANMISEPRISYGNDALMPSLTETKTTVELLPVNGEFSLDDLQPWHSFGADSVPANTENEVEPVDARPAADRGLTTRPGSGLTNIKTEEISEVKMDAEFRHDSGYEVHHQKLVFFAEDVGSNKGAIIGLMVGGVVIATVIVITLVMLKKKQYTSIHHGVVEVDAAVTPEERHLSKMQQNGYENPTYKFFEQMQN
T1 sequence (P22303 whole entry): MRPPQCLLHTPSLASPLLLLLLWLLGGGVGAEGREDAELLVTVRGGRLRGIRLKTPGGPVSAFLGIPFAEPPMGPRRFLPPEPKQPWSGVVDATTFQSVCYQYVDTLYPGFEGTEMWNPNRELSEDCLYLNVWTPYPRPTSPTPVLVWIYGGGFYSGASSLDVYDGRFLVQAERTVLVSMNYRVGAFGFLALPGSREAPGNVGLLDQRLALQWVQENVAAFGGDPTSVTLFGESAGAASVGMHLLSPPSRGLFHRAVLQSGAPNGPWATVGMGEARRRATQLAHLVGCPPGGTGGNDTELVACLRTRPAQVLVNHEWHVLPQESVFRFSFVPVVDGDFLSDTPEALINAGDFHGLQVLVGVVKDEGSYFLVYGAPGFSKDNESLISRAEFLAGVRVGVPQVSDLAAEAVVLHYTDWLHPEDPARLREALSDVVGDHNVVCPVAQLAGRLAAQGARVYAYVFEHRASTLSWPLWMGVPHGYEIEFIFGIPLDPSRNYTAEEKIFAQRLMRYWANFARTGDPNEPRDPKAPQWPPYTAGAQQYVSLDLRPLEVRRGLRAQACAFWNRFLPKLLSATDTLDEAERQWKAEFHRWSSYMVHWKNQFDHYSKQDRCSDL

SMILES	IC50 (Acetylcholinesterase [1]) [nM]	inhibition (Acetylcholinesterase [2]) [%]	IC50 [3] [nM]	inhibition [4] [%]	IC50 (Acetylcholinesterase [5]) [nM]	inhibition [6] [%]
c1ccc2c(NCCSSCCNc3c4c(nc5ccccc35)CCCC4)c3c(nc2c1)CCCC3	5.04	52.6	24200			
O=C(CCCOc1cccc2[nH]c3ccccc3c12)NCCCNc1c2c(nc3ccccc13)CCCC2	2.15	57.7		36	23000	
COc1cc(/C=C/C(=O)NCCCCCCNc2c3c(nc4ccccc24)CCCC3)ccc1O	11.6					100
